{"source": "patent US20260306488A1", "about": "“FUNCTIONAL PROTECTIVE AGENT FOR ORGAN OR TISSUE” (TOHOKU UNIVERSITY, priority 2023, published 2026)", "key": {"[1]": {"system": "adenine-fed renal failure model mouse", "assay": "Plasma markers (creatinine, ALT, total cholesterol) in adenine-fed renal failure model mouse", "assay_type": "in vivo, mouse (male C57BL/6)", "settings": "plasma samples after 2-week feeding", "procedure": "(§1) In order to confirm that a present compound has an effect of protecting kidney function and liver function in a renal failure model, 2,5-diketopiperazine (cGP; see Table 1) encompassed in the present compound was used for performing analysis in which the cGP is administered to a model mouse with chronic renal failure induced by feeding adenine (hereinafter referred to as the “adenine-fed renal failure model mouse”) to analyze the blood concentration of a uremic substance (creatinine), that is, an indicator of kidney function, and a ratio of renal tubules, as well as to analyze blood concentrations of three liver function markers (ALT, AST, and γGTP) and two lipids (total cholesterol and TG). The adenine-fed renal failure model mouse is a mouse that develops kidney damage because fed adenine crystallizes as insoluble 2,8-dihydroxyadenine in the renal tubules (Cozzolino, M. et al. Kidney Int. 64, 441-450 (2003), Tamagaki, K. et al. Nephrol. Dial. Transplant 21, 651-659 (2006)).\n(§2) The analysis using an adenine-fed renal failure model mouse was performed according to the following procedures through:\n(§3) [1] 8-Week old male C57BL/6 mice (purchased from Japan CLEA) were grouped into a normal diet group (n=6) to be fed a normal diet (CE-2, manufactured by Japan CLEA), and an adenine-fed group (n=12) to be fed the normal diet containing 0.2% adenine (manufactured by Wako).\n[2] After feeding the mice for 6 weeks, the adenine-fed group was grouped into an adenine-fed control group (n=6) to be fed the normal diet, and an adenine-fed cGP group (n=6) to be fed the normal diet containing cGP. The normal diet containing cGP was prepared by mixing cGP (manufactured by Bachem) with the normal diet to a final concentration of 0.0025%.\n[3] After feeding the mice for 2 weeks, blood samples were harvested from each of the three groups (the normal diet group, the adenine-fed control group, and the adenine-fed cGP group) to prepare plasma samples (referred to as “plasma samples after 2-week feeding”) according to a usual method.\n[4] […]"}, "[2]": {"system": "diabetes model mouse (db/db mouse)", "assay": "Plasma uremic substances (m1A and TMAO) in diabetes model mouse", "assay_type": "in vivo, mouse (BKS-db/db)", "settings": "diabetes model cGP group (cGP in diet) vs diabetes model normal diet group, after 5-week feeding, Unpaired t-test p<0.01", "procedure": "Next, in order to confirm that the present compound reduces chronic inflammation and resulting cellular damage, and prevents vascular complication in a diabetes model, cGP was administered to a diabetes model mouse (db/db mouse) to analyze blood concentrations of two uremic substances (1-methyladenosine [m1A] and trimethylamine-N-oxide [TMAO]).\n(§4) The analysis using a diabetes model mouse was performed according to the following procedures through:\n[1] Diabetes model mice (BKS-db/db mice, purchased from Japan CLEA) having been fed a normal diet (CE-2, manufactured by Japan CLEA) were grouped into a diabetes model normal diet group (n=10) to be fed the normal diet, and a diabetes model cGP group (n=10) to be fed the normal diet containing cGP.\n[2] After feeding the mice for 5 weeks, blood samples were harvested from the above two groups (the diabetes model normal diet group, and the diabetes model cGP group), and plasma samples were prepared according to a usual method.\n[3] The thus prepared plasma samples were used to measure blood concentrations of two uremic substances (m1A and TMAO) by mass spectrometry using LC-MS/MS (manufactured by Shimadzu Corporation) (see FIG. 7)."}, "[3]": {"system": "adenine-fed renal failure model mouse", "assay": "Kidney tissue analysis by Masson's Trichrome Staining in adenine-fed renal failure model mouse (ratio of renal tubules)", "assay_type": "in vivo, mouse (male C57BL/6)", "settings": "adenine-fed cGP group (0.0025% cGP in diet) vs adenine-fed control group; FIG. 2A, Dunnett's test p<0.01; FIG. 2 legend says after 2-week feeding, method says tissue harvested at 3 weeks", "procedure": "as §1, §2, §3\n[2] […]"}, "[4]": {"system": "diabetes model mouse (db/db mouse)", "assay": "Liver tissue analysis by HE staining in diabetes model mouse", "assay_type": "in vivo, mouse (BKS-db/db)", "settings": "diabetes model cGP group (cGP in diet) vs diabetes model normal diet group; after 6-week feeding; FIG. 4", "procedure": "(§5) Next, in order to confirm that the present compound protects kidney function and liver function in a diabetes model, cGP was administered to a diabetes model mouse (db/db mouse) to analyze blood concentrations of two uremic substances (creatinine and phenyl sulfate), as well as a blood concentration of a factor leading to renal failure in a patient with type 1 diabetes (N6-acetyllysine [Ac6Lys]), and additionally, pathological tissues of liver and blood concentrations of three liver function markers (ALT, AST, and γGTP) and two lipids (total cholesterol and TG) were analyzed.\nas §4\n[1] Wild-type mice (BKS-m+/m+ mice, purchased from Japan CLEA) having been fed a normal diet (CE-2, manufactured by Japan CLEA) were grouped into a wild-type normal diet group (n=5) to be fed the normal diet, and a wild-type cGP group (n=4) to be fed the normal diet containing cGP. Besides, diabetes model mice (BKS-db/db mice; purchased from Japan CLEAR) having been fed the normal diet were grouped into a diabetes model normal diet group (n=4) to be fed the normal diet, and a diabetes model cGP group (n=4) to be fed the normal diet containing cGP. […]"}, "[5]": {"system": "diabetes model mouse (db/db mouse)", "assay": "Plasma creatinine, phenyl sulfate and Ac6Lys in diabetes model mouse", "assay_type": "in vivo, mouse (BKS-db/db)", "procedure": "as §5, §4\n[1] Wild-type mice (BKS-m+/m+ mice, purchased from Japan CLEA) having been fed a normal diet (CE-2, manufactured by Japan CLEA) were grouped into a wild-type normal diet group (n=5) to be fed the normal diet, and a wild-type cGP group (n=4) to be fed the normal diet containing cGP. Besides, diabetes model mice (BKS-db/db mice; purchased from Japan CLEAR) having been fed the normal diet were grouped into a diabetes model normal diet group (n=4) to be fed the normal diet, and a diabetes model cGP group (n=4) to be fed the normal diet containing cGP. Blood samples were harvested from the diabetes model cGP group, and plasma samples (referred to as the “plasma samples after 0-week feeding”) were prepared according to a usual method.\n[2] After feeding the mice for 6 weeks, blood samples were harvested from the above four groups (the wild-type normal diet group, the wild-type cGP group, the diabetes model normal diet group, and the diabetes model cGP group), plasma samples (referred to as the “plasma samples after 6-week feeding”) were prepared according to a usual method, and then, liver tissues were harvested, fixed in 10% neutral-buffered formalin, and embedded in paraffin, and the resultant paraffin-embedded liver tissues were sliced to prepare liver tissue sections.\n[3] The thus obtained “plasma samples after 0-week feeding” and “plasma samples after 6-week feeding” were used to measure blood concentrations of the three substances (creatinine, phenyl sulfate, and Ac6Lys) (see FIGS. 5 and 6), and blood concentrations of three liver function markers (ALT, AST, and γGTP) and two lipids (total cholesterol and TG) by mass spectrometry using LC-MS/MS (manufactured by Shimadzu Corporation). Besides, the liver tissue sections prepared as described above were used to perform analysis by Hematoxylin and Eosin (HE) staining method according to a usual method (see FIG. 4)."}}, "data": [{"smiles": "O=C1NCC(=O)N2CCCC12", "note": "(centres unmarked) [cGP, cyclo-glycyl-proline]", "values": [{"measurement": "ALT concentration in plasma", "setting": "[1]; adenine-fed cGP group (0.0025% cGP in diet) vs adenine-fed control group, FIG. 3A, Dunnett's test p<0.05", "value": "significantly decreased"}, {"measurement": "total cholesterol concentration in plasma", "setting": "[1]; adenine-fed cGP group (0.0025% cGP in diet) vs adenine-fed control group, FIG. 3B, Dunnett's test p<0.05", "value": "significantly decreased"}, {"measurement": "creatinine concentration in plasma", "setting": "[1]; adenine-fed cGP group (normal diet containing 0.0025% cGP) vs adenine-fed control group, FIG. 1, Dunnett's test", "value": "significantly decreased"}, {"measurement": "m1A (1-methyladenosine) concentration in plasma", "setting": "[2]; FIG. 7A", "value": "significantly reduced"}, {"measurement": "TMAO (trimethylamine-N-oxide) concentration in plasma", "setting": "[2]; FIG. 7B", "value": "significantly reduced"}, {"measurement": "ratio of renal tubules in the renal cortex", "setting": "[3]", "value": "significantly increased"}, {"measurement": "fat droplets in the liver", "setting": "[4]", "value": "reduced"}, {"measurement": "creatinine concentration in plasma", "setting": "[5]; diabetes model cGP group (cGP in diet) vs diabetes model normal diet group, plasma samples after 6-week feeding, FIG. 5, Dunnett's test", "value": "significantly decreased"}, {"measurement": "blood concentration of creatinine, week 6 vs week 0", "setting": "[5]; diabetes model cGP group (cGP in diet), week 6 after feeding compared to week 0, FIG. 6A, Paired t-test p<0.05", "value": "significantly lower"}, {"measurement": "blood concentration of phenyl sulfate, week 6 vs week 0", "setting": "[5]; diabetes model cGP group (cGP in diet), week 6 after feeding compared to week 0, FIG. 6B, Paired t-test p<0.05", "value": "significantly lower"}, {"measurement": "blood concentration of N6-acetyllysine (Ac6Lys), week 6 vs week 0", "setting": "[5]; diabetes model cGP group (cGP in diet), week 6 after feeding compared to week 0, FIG. 6C, Paired t-test p<0.05", "value": "significantly lower"}]}]}
